# Test system: cancer/testis antigens (MAGE-A1, -A3, -A4, -A6, -A10, -A12, NY-ESO-1, GAGE-3-7, BORIS) in proliferating lymphocytes
# Experiment: RT-PCR analysis of cancer/testis antigen expression in 5-Aza-CdR-treated proliferating lymphocytes
compound,measurement,setting,value
"Nc1ncn([C@H]2C[C@H](O)[C@@H](CO)O2)c(=O)n1 [Culture 5-Aza-CdR, 5-Aza-2′-deoxycytidine]",induction of CTA expression (RT-PCR),"10 μM 5-aza-2′-deoxycytidine, 150 IU/ml IL-2, 3 days, lymphocytes expanded with autologous mature dendritic cells",all the investigated antigens are present in the induced lymphocytes
same,"CTA expression, cultures from log phase of growth (day 8) versus plateau (day 10)","10 μM 5-aza-2′-deoxycytidine, 3 days",higher expression in cultures taken from log phase of growth
same,most easily inducible CTA,preliminary experiments on kinetics and concentration dependence (not shown),"MAGE-A1, MAGE-A4 and MAGE-A12"
